Reference: patent US9771343B2, “2-alkyl-or-aryl-substituted tanshinone derivatives, and preparation method and application thereof” (Hangzhou Bensheng Pharmaceutical Co., Ltd., priority 2011, dated 2017)
Converted amounts (≈) assume the structure as drawn. Where two headings read alike, the source gives them in different places. Each block holds one compound with its values, some of them ahead of it.

Tests used:
[1] = system: H9 (acute lymphoblastic leukemia, ALL); assay: MTT cell growth inhibition, H9 leukemia cells, 72 h; type: cell-based; conditions: H9, 72 h
Procedure: (§1) The standard sample of tanshinone I (TA) and the 2-alkyl- or 2-aromatic-substituted tanshinone I derivatives of the present invention are sufficiently dissolved in dimethylsulfoxide to produce a stock solution of 10 mg/mL, which is refrigerated at 4° C. and stored in dark, and is diluted with cell culture medium to a desired concentration prior to experimentation.
(§2) Obtaining 6000 well-growing leukemia cells and inoculating them into wells of a 96-well cell culture plate. The culture medium is the RPMI-1640 cell culture medium containing 10% fetal bovine serum. After adding on the second day the 2-alkyl- or 2-aromatic-substituted tanshinone I derivatives of different concentrations and mixing uniformly, placing the plate in a carbon dioxide cell incubator (5% CO2) at 37° C. and incubated for 72 hours. Then the viable cell concentration is determined by MTT method. In this experiment, the cell viability in control group (not treated with any compound) is set as 100%, and the cell viability (%) after treatment by the compounds and the half maximum inhibitory concentration for the leukemia cell at 72 hours (IC50 value of 72 hours, μg/mL) are calculated.

[2] = system: Becap37 (human breast cancer cell); assay: MTT cell growth inhibition, Becap37 cells, 72 h; type: cell-based; conditions: Becap-37, 72 h
Procedure: as §1, with “with a” for “with”, “to the” for “to a”
(§3) Obtaining 6000 well-growing human solid tumor cells and inoculating them into wells of a 96-well cell culture plate. The culture medium is DMEM High Glucose cell culture medium containing 10% fetal bovine serum. The plate is placed in a carbon dioxide cell incubator (5% CO2) at 37° C. and incubated for 24 hours. After adding the 2-alkyl- or 2-aromatic-substituted tanshinone I derivatives of different concentrations and mixing uniformly, the plate is placed in a carbon dioxide cell incubator (5% CO2) at 37° C. and incubated for 72 hours. Then the viable cell concentration is determined by MTT method. In this experiment, the cell viability in control group (not treated with any compound) is set as 100%, and the cell viability (%) after treatment by the compounds and the half maximum inhibitory concentration for the leukemia cell at 72 hours (IC50 value of 72 hours, μg/mL) are calculated.

[3] = system: RKO (human colon adenocarcinoma cell); assay: MTT cell growth inhibition, RKO cells, 72 h; type: cell-based; conditions: for IC50 / IC90: RKO, 72 h
Procedure: as §1, with “with a” for “with”, “to the” for “to a”
as §3

[4] = system: Kasumi-1 (acute myeloid leukemia M2 type, AML-M2); assay: MTT cell growth inhibition, Kasumi-1 leukemia cells, 72 h; type: cell-based; conditions: Kasumi-1, 72 h
Procedure: as §1, §2

[5] = system: Hep-2 (laryngeal carcinoma); assay: MTT cell growth inhibition, Hep-2 cells, 72 h; type: cell-based, human
Procedure: as §1, with “with a” for “with”, “to the” for “to a”
as §3

[6] = system: U87 MG (malignant glioma cell); assay: MTT cell growth inhibition, U87 MG cells, 72 h; type: cell-based, human; conditions: U87-MG, 72 h
Procedure: as §1, with “with a” for “with”, “to the” for “to a”
as §3

[7] = system: MGC 803 (human gastric cancer cell); assay: MTT cell growth inhibition, MGC 803 cells, 72 h; type: cell-based; conditions: MGC-803, 72 h
Procedure: as §1, with “with a” for “with”, “to the” for “to a”
as §3

[8] = system: PANC-1 (pancreatic cancer); assay: MTT cell growth inhibition, PANC-1 cells, 72 h; type: cell-based, human; conditions: PANC-1, 72 h
Procedure: as §1, with “with a” for “with”, “to the” for “to a”
as §3

[9] = system: CaES-17 (esophageal cancer cell); assay: MTT cell growth inhibition, CaES-17 cells, 72 h; type: cell-based, human; conditions: CaEs-17, 72 h
Procedure: as §1, with “with a” for “with”, “to the” for “to a”
as §3

PC-3 (prostate cancer) = assay: MTT cell growth inhibition, PC-3 cells, 72 h; type: cell-based, human; conditions: for IC50 / IC90: PC-3, 72 h
Procedure: as §1, with “with a” for “with”, “to the” for “to a”
as §3

[10] = system: RPMI8226 (multiple myeloma); assay: MTT cell growth inhibition, RPMI8226 multiple myeloma cells, 72 h; type: cell-based, human; conditions: RPMI 8226, 72 h
Procedure: as §1, §2

[11] = system: Jurkat (acute lymphoblastic leukemia, ALL); assay: MTT cell growth inhibition, Jurkat leukemia cells, 72 h; type: cell-based; conditions: 72 h
Procedure: as §1, §2

[12] = system: K562/adr (drug-resistant, chronic myeloid leukemia, CML); assay: MTT cell growth inhibition, K562/adr leukemia cells, 72 h; type: cell-based
Procedure: as §1, §2

[13] = system: CNE (nasopharyngeal carcinoma cell); assay: MTT cell growth inhibition, CNE cells, 72 h; type: cell-based, human; conditions: for IC50 / IC90: CNE, 72 h
Procedure: as §1, with “with a” for “with”, “to the” for “to a”
as §3

[14] = system: SK-OV-3 (ovarian cancer cell); assay: MTT cell growth inhibition, SK-OV-3 cells, 72 h; type: cell-based, human; conditions: SK-OV-3, 72 h
Procedure: as §1, with “with a” for “with”, “to the” for “to a”
as §3

A549 (human lung cancer) = assay: MTT cell growth inhibition, A549 cells, 72 h; type: cell-based; conditions: A549, 72 h
Procedure: as §1, with “with a” for “with”, “to the” for “to a”
as §3

[15] = system: NB4 (acute promyelocytic leukemia, AML); assay: MTT cell growth inhibition, NB4 leukemia cells, 72 h; type: cell-based; conditions: NB4, 72 h
Procedure: as §1, §2

[16] = system: Hela (human cervical cancer cell); assay: MTT cell growth inhibition, Hela cells, 72 h; type: cell-based; conditions: 72 h
Procedure: as §1, with “with a” for “with”, “to the” for “to a”
as §3

[17] = system: Hep G2 (human liver cancer cell); assay: MTT cell growth inhibition, Hep G2 cells, 72 h; type: cell-based; conditions: Hep G2, 72 h
Procedure: as §1, with “with a” for “with”, “to the” for “to a”
as §3

MG63 (osteosarcoma) = assay: MTT cell growth inhibition, MG63 cells, 72 h; type: cell-based, human; conditions: MG-63, 72 h
Procedure: as §1, with “with a” for “with”, “to the” for “to a”
as §3

[18] = system: SGC-7901 human gastric adenocarcinoma cells; conditions: concentration dependent within a certain range, literature report; cited from earlier work
tumor-bearing nude mice = conditions: literature report; cited from earlier work
Hep G2 cells = conditions: in vitro, literature report; cited from earlier work
[19] = background statement; cited from earlier work
[20] = background statement; cited from earlier work; remark: listed apart in the source

IC50 ([1]; read-out: IC50): 6.4 µg/mL (≈ 22 µM)
IC90 ([1]; read-out: IC90): > 16 µg/mL
IC50 ([2]; Homo sapiens, read-out: IC50): 3.96 µg/mL (≈ 13.6 µM)
IC90 ([2]; Homo sapiens, read-out: IC90): > 16 µg/mL
IC50 ([3]; Homo sapiens, read-out: IC50): 1.35 µg/mL (≈ 4.65 µM)
IC90 ([3]; Homo sapiens, read-out: IC90): > 16 µg/mL
IC50 ([4]; Homo sapiens, read-out: IC50): 9.66 µg/mL (≈ 33.3 µM)
IC90 ([4]; Homo sapiens, read-out: IC90): 30.3 µg/mL (≈ 104 µM)
IC50 ([5]; Homo sapiens, HEp-2, 72 h, read-out: IC50): 9.17 µg/mL (≈ 31.6 µM)
IC90 ([5]; Homo sapiens, HEp-2, 72 h, read-out: IC90): > 16 µg/mL
IC50 ([6]; Homo sapiens, U-87 MG, read-out: IC50): 6.63 µg/mL (≈ 22.8 µM)
IC90 ([6]; Homo sapiens, U-87 MG, read-out: IC90): 16.8 µg/mL (≈ 57.7 µM)
IC50 ([7]; Homo sapiens, read-out: IC50): 4.65 µg/mL (≈ 16 µM)
IC90 ([7]; Homo sapiens, read-out: IC90): 18.4 µg/mL (≈ 63.4 µM)
IC50 ([8]; Homo sapiens, read-out: IC50): 3.46 µg/mL (≈ 11.9 µM)
IC90 ([8]; Homo sapiens, read-out: IC90): > 16 µg/mL
IC50 ([9]; Homo sapiens, CaEs17, read-out: IC50): 5.19 µg/mL (≈ 17.9 µM)
IC90 ([9]; Homo sapiens, CaEs17, read-out: IC90): 20.4 µg/mL (≈ 70.3 µM)
IC50 (PC-3 (prostate cancer); Homo sapiens, read-out: IC50): 4.99 µg/mL (≈ 17.2 µM)
IC90 (PC-3 (prostate cancer); Homo sapiens, read-out: IC90): 17.5 µg/mL (≈ 60.3 µM)
IC50 ([10]; Homo sapiens, read-out: IC50): 2 µg/mL (≈ 6.89 µM)
IC90 ([10]; Homo sapiens, read-out: IC90): 16.5 µg/mL (≈ 56.8 µM)
IC50 ([11]; Homo sapiens, read-out: IC50): 1.88 µg/mL (≈ 6.48 µM)
IC90 ([11]; Homo sapiens, read-out: IC90): 6.97 µg/mL (≈ 24 µM)
IC50 ([12]; Homo sapiens, K562/Adr, read-out: IC50): 8.84 µg/mL (≈ 30.4 µM)
IC90 ([12]; Homo sapiens, K562/Adr, read-out: IC90): 28.7 µg/mL (≈ 98.7 µM)
IC50 ([13]; Homo sapiens, read-out: IC50): 3.9 µg/mL (≈ 13.4 µM)
IC90 ([13]; Homo sapiens, read-out: IC90): 97 µg/mL (≈ 334 µM)
IC50 ([14]; Homo sapiens, read-out: IC50): > 16 µg/mL
IC90 ([14]; Homo sapiens, read-out: IC90): > 16 µg/mL
IC50 (A549 (human lung cancer); Homo sapiens, read-out: IC50): 6.45 µg/mL (≈ 22.2 µM)
IC90 (A549 (human lung cancer); Homo sapiens, read-out: IC90): > 16 µg/mL
IC50 ([15]; read-out: IC50): 1.13 µg/mL (≈ 3.89 µM)
IC90 ([15]; read-out: IC90): 3.64 µg/mL (≈ 12.5 µM)
IC50 ([16]; Homo sapiens, HeLa, read-out: IC50): 4 µg/mL (≈ 13.8 µM)
IC90 ([16]; Homo sapiens, HeLa, read-out: IC90): > 16 µg/mL
IC50 ([17]; Homo sapiens, HepG2, read-out: IC50): 5.48 µg/mL (≈ 18.9 µM)
IC90 ([17]; Homo sapiens, HepG2, read-out: IC90): > 16 µg/mL
IC50 (MG63 (osteosarcoma); Homo sapiens, read-out: IC50): 3.18 µg/mL (≈ 11 µM)
IC90 (MG63 (osteosarcoma); Homo sapiens, read-out: IC90): > 16 µg/mL
SMILES: Cc1oc2c(c1C)C(=O)C(=O)c1c-2ccc2c(C)cccc12 [BS-TA-03]
anti-RKO activity (in words) ([3]; Table 2): good activity
anti-PC-3 activity (in words) (PC-3 (prostate cancer); Table 2): good activity
anti-CNE activity (in words) ([13]; Table 2): good activity

IC50 [1]: 3.5 µg/mL (≈ 12.7 µM)
IC90 [1]: 13.06 µg/mL (≈ 47.3 µM)
IC50 [2]: 3.03 µg/mL (≈ 11 µM)
IC90 [2]: >16 µg/mL
IC50 [3]: 1.83 µg/mL (≈ 6.62 µM)
IC90 [3]: >16 µg/mL
IC50 [4]: 0.99 µg/mL (≈ 3.58 µM)
IC90 [4]: 3.62 µg/mL (≈ 13.1 µM)
IC50 ([5]; Hep-2, 72 h): 3.15 µg/mL (≈ 11.4 µM)
IC90 ([5]; Hep-2, 72 h): >16 µg/mL
IC50 [6]: 6.36 µg/mL (≈ 23 µM)
IC90 [6]: 14.63 µg/mL (≈ 53 µM)
IC50 [7]: 1.62 µg/mL (≈ 5.86 µM)
IC90 [7]: 9.26 µg/mL (≈ 33.5 µM)
IC50 [8]: 2.7 µg/mL (≈ 9.77 µM)
IC90 [8]: >16 µg/mL
IC50 [9]: 3.18 µg/mL (≈ 11.5 µM)
IC90 [9]: 16.00 µg/mL (≈ 57.9 µM)
IC50 (PC-3 (prostate cancer)): 6.63 µg/mL (≈ 24 µM)
IC90 (PC-3 (prostate cancer)): 10.57 µg/mL (≈ 38.3 µM)
IC50 [10]: 0.96 µg/mL (≈ 3.47 µM)
IC90 [10]: 10.86 µg/mL (≈ 39.3 µM)
IC50 [11]: 1.74 µg/mL (≈ 6.3 µM)
IC90 [11]: 8.42 µg/mL (≈ 30.5 µM)
IC50 ([12]; K562/ADR): 0.88 µg/mL (≈ 3.19 µM)
IC90 ([12]; K562/ADR): 4.17 µg/mL (≈ 15.1 µM)
IC50 [13]: 7.4 µg/mL (≈ 26.8 µM)
IC90 [13]: >16 µg/mL
IC50 [14]: >16 µg/mL
IC90 [14]: >16 µg/mL
IC50 (A549 (human lung cancer)): 4.03 µg/mL (≈ 14.6 µM)
IC90 (A549 (human lung cancer)): 17.29 µg/mL (≈ 62.6 µM)
IC50 [15]: 0.98 µg/mL (≈ 3.55 µM)
IC90 [15]: 2.5 µg/mL (≈ 9.05 µM)
IC50 ([16]; Hela): 4 µg/mL (≈ 14.5 µM)
IC90 ([16]; Hela): >16 µg/mL
IC50 [17]: 2.19 µg/mL (≈ 7.93 µM)
IC90 [17]: 22.13 µg/mL (≈ 80.1 µM)
IC50 (MG63 (osteosarcoma)): 0.96 µg/mL (≈ 3.47 µM)
IC90 (MG63 (osteosarcoma)): >16 µg/mL
SMILES: Cc1coc2c1C(=O)C(=O)c1c-2ccc2c(C)cccc12 [TA, 1,6-dimethyl-phenanthreno [1,2-b]furan-10,11-diketone, reference compound]
effect on growth of SGC-7901 cells cultured in vitro [18]: significant inhibitory effect
effect on tumor growth in tumor-bearing nude mice (tumor-bearing nude mice): can inhibit the tumor growth in the mice
effect on proliferation of Hep G2 cells (Hep G2 cells): can inhibit the proliferation of Hep G2 cells
in vivo bioavailability [19]: low in vivo bioavailability
solubility in water [20]: poor solubility in water
